Test results from US20150004134A1, “TREATMENT OF CANCER WITH HETEROCYCLIC INHIBITORS OF GLUTAMINASE” (Calithera Biosciences, Inc., priority 2012, published 2015).

Legend:
[1] = target: T1, recombinant form of Glutaminase 1 (GAC) (Homo sapiens, UniProt O94925); experiment: Recombinant Enzyme Assay - Time Dependence (60 min preincubation); type: biochemical; settings: read-out: GAC Delta N2 IC50 60 min preinc
T1 sequence (O94925 137-598 isoform O94925-3 limits assumed): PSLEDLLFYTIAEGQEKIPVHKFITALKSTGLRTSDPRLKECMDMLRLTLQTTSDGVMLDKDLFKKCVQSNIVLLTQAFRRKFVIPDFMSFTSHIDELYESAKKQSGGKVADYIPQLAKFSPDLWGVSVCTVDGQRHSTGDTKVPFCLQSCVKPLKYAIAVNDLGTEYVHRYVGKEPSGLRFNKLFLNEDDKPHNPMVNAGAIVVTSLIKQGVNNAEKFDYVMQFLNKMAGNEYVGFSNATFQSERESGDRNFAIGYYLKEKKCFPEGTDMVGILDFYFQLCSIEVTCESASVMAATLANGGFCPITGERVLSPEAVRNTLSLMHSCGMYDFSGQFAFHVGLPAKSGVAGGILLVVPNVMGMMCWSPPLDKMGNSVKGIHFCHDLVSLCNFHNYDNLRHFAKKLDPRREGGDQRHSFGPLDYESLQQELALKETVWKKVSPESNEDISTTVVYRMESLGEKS
Procedure: The enzyme/compound mix was sealed with sealing foil (USA Scientific) and allowed to incubate, with mild agitation, for 60 minutes at 20° C. Enzymatic reaction was started with the addition of 50 μL of substrate solution (50 mM Tris-HCl pH 8.0, 0.2 mM EDTA, 150 mM K2HPO4, 0.1 mg/ml BSA, 1 mM DTT, 20 mM L-glutamine, 2 mM NAD^+, and 10 ppm antifoam) and read in a Molecular Devices M5 plate reader at 20° C. The plate reader was configured to read absorbance (=340 nm) in kinetic mode for 15 minutes. Data was recorded as milli-absorbance units per minute and slopes were compared to a control compound and a DMSO-only control on the same plate. Compounds with slopes less than the DMSO control were considered inhibitors and plate variability was assessed using the control compound.

[2] = system: P493-6 (myc "on") cells; experiment: Cell Proliferation Assay; type: cell-based; settings: P493-6, 72 h, read-out: Cell prolif P493 72 h IC50, P493-6 cells, 72 h
How it was run: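 P493-6 cells with myc on, 10,000 per well in RPMI/10% FBS, exposed to serially diluted compound (0.5% DMSO final) for 72 h at 37 °C, 5% CO2. Antiproliferative effect read by Cell Titer Glo luminescence or Viacount FACS viability count.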

| Compound | IC50 [1] [nM] | IC50 [2] [nM] |
| --- | --- | --- |
| COc1cccc(C(OC(=O)CCN2CCOCC2)C(=O)Nc2nnc(CCCCc3ccc(NC(=O)Cc4ccccc4)nn3)s2)c1 (stereo not drawn) [Compound 404] | 60 | 22 |
| CN(C)Cc1cccc(CC(=O)Nc2nnc(CCCCc3ccc(NC(=O)Cc4ccccc4)nn3)s2)c1 [Compound 406] | 16 | 270 |
| CNCc1cccc(CC(=O)Nc2nnc(CCCCc3ccc(NC(=O)Cc4ccccc4)nn3)s2)c1 [Compound 408] | 18 | 190 |
| Nc1ccc(CC(=O)Nc2nnc(CCCCc3ccc(NC(=O)Cc4ccccc4)nn3)s2)cc1 [Compound 410] | 9 | 57 |
| CC(C)(C)OC(=O)NCc1cccc(CC(=O)Nc2nnc(CCCCc3ccc(N)nn3)s2)c1 [Compound 412] | 28 | 110 |
| O=C(Cc1ccccc1)Nc1ccc(CCCCc2nnc(NC(=O)Cc3cccc(OC(F)(F)F)c3)s2)nn1 [Compound 413] | 7 | 45 |
| O=C(Cc1ccccc1)Nc1ccc(CCCCc2nnc(NC(=O)Cc3cc(F)cc(C(F)(F)F)c3)s2)nn1 [Compound 414] | 10 | 58 |
| COc1cccc(CNC(=O)Nc2nnc(CCCCc3nnc(NC(=O)Cc4ccccc4)s3)s2)c1 [Compound 416] | 55 | 350 |
| CCNC(=O)Nc1nnc(CCCCc2ccc(NC(=O)Cc3ccccc3)nn2)s1 [Compound 418] | 140 | 320 |
| O=C(Cc1ccccc1)Nc1ccc(CCCCc2nnc(NC(=O)Nc3ccccc3)s2)nn1 [Compound 419] | 24 | 64 |
| CCNC(=O)Nc1ccc(CCCCc2nnc(NC(=O)Cc3cccc(CN)c3)s2)nn1 [Compound 421] | 290 | 160 |
| NCc1cccc(CC(=O)Nc2nnc(CCCCc3ccc(NC(=O)C(O)c4cccc(Cl)c4)nn3)s2)c1 (stereo not drawn) [Compound 423] | 22 | 42 |
| CC(=O)Nc1ccc(CCCCc2nnc(NC(=O)Cc3cccc(CNC(=O)OC(C)(C)C)c3)s2)nn1 [Compound 424] | 6 | 8 |
| CC(=O)Nc1ccc(CCCCc2nnc(NC(=O)Cc3cccc(CN)c3)s2)nn1 [Compound 425] | 86 | 15 |
| CC(C)(C)OC(=O)NCCc1cccc(CC(=O)Nc2nnc(CCCCc3ccc(NC(=O)Cc4ccccc4)nn3)s2)c1 [Compound 429] | 4 | 7 |
| CN(C)CC(=O)Nc1ccc(CC(=O)Nc2nnc(CCCCc3ccc(NC(=O)Cc4ccccc4)nn3)s2)cc1 [Compound 430] | 9 | 27 |
| CC(=O)NCc1cccc(CC(=O)Nc2nnc(CCCCc3ccc(NC(=O)Cc4ccccc4)nn3)s2)c1 [Compound 431] | 7 | 26 |
| CC(C)CC(=O)NCc1cccc(CC(=O)Nc2nnc(CCCCc3ccc(NC(=O)Cc4ccccc4)nn3)s2)c1 [Compound 433] | 2 | 7 |
| CN(C)CC(=O)NCc1cccc(CC(=O)Nc2nnc(CCCCc3ccc(NC(=O)Cc4ccccc4)nn3)s2)c1 [Compound 434] | 5 | 17 |
| O=C(CN1CCOCC1)Nc1cccc(CC(=O)Nc2nnc(CCCCc3ccc(NC(=O)Cc4ccccc4)nn3)s2)c1 [Compound 440] | 8 | 31 |
| NCCc1cccc(CC(=O)Nc2nnc(CCCCc3ccc(NC(=O)Cc4ccccc4)nn3)s2)c1 [Compound 441] | 11 | 180 |
| O=C(Cc1ccccc1)Nc1ccc(CCCCc2nnc(NC(=O)Cc3c(F)cccc3F)s2)nn1 [Compound 443] | 11 | 100 |
| CN(Cc1cccc(CC(=O)Nc2nnc(CCCCc3ccc(NC(=O)Cc4ccccc4)nn3)s2)c1)C(=O)Cc1ccccc1 [Compound 444] | 3 | 8 |
| CC(=O)N(C)Cc1cccc(CC(=O)Nc2nnc(CCCCc3ccc(NC(=O)Cc4ccccc4)nn3)s2)c1 [Compound 445] | 4 | 22 |
